{"source": "paper PMC7468108", "about": "(Communications Biology, 2020)", "key": {"Aβ42 [1]": {"biological_target": "T1, Aβ42 (Homo sapiens, UniProt P05067)", "T1 construct": "purchased rPeptide (USA)", "T1 sequence (P05067 672-713 limits assumed)": "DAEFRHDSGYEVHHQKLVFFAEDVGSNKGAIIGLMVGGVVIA", "test": "TEM of Aβ42 fibrils formed with the tested molecules", "settings": "5-fold excess of compound", "experimental": "(§1) These fibrils also generated the amyloid specific gold-green birefringence upon staining with Congo red (Fig. 3, bottom panel and Supplementary Fig. 6)[74].\n(§2) Samples (10 µL) were placed for 2 min on 400-mesh copper grids covered with carbon-stabilized Formvar film (Electron Microscopy Sciences (EMS), Hatfield, PA). Excess fluid was removed, and grids were negatively stained with 2% uranyl acetate solution (10 µL) for 2 min. After excess fluid removal, the samples were visualized using a JEM-1400 TEM (JEOL), operated at 80 kV."}, "hIAPP [2]": {"biological_target": "T2, hIAPP (Homo sapiens, UniProt P10997)", "T2 construct": "hIAPP is a 37-amino acid neuroendocrine peptide hormone; purchased Peptide 2.0 (USA)", "T2 sequence (P10997 34-70 limits assumed)": "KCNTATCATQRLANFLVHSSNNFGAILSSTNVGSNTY", "test": "TEM of hIAPP fibrils formed with the tested molecules", "settings": "5-fold molar excess of compound", "experimental": "(§3) When hIAPP was incubated with 5-fold molar excess of the hybrid molecules, no typical fibrillar assemblies were observed, rather some amorphous aggregates of different sizes were detected (Fig. 4, upper panel).\nas §2"}, "Aβ42 [3]": {"biological_target": "T1, Aβ42", "test": "Congo red birefringence of Aβ42 fibrils formed with the tested molecules", "settings": "5-fold excess of compound", "excerpt": "as §1"}, "hIAPP [4]": {"biological_target": "T2, hIAPP", "test": "Congo red birefringence of hIAPP fibrils formed with the tested molecules", "settings": "5-fold molar excess of compound", "experimental": "as §3"}, "[5]": {"biological_target": "T3, pre-formed fibrils of Aβ42 (Homo sapiens, UniProt P05067)", "T3 construct": "purchased rPeptide (USA)", "T3 sequence (P05067 672-713 limits assumed)": "as the sequence (P05067 672-713 limits assumed) above", "test": "Congo red birefringence of pre-formed Aβ42 fibrils with the tested molecules", "settings": "5-fold excess of compound", "experimental": "(§4) For efficient treatment of proteinopathies it may be advantageous to disassemble amyloid aggregates/fibrils which are usually already present at the time of diagnosis[75]–[77]. Therefore, the ability of the hybrid molecules to disrupt pre-formed fibrils of Aβ42 and hIAPP was examined. […] According to the ThT kinetic results, this time was sufficient to complete fibril formation (Fig. 2a, d). Then, various doses of the hybrid molecules were added to the pre-formed fibrils and the mixtures were incubated for additional 10 h. The process of disaggregation was monitored by ThT-binding assay, CD spectroscopy, TEM and Congo red staining (Fig. 5)."}, "[6]": {"biological_target": "T4, pre-formed fibrils of hIAPP (Homo sapiens, UniProt P10997)", "T4 construct": "hIAPP is a 37-amino acid neuroendocrine peptide hormone; purchased Peptide 2.0 (USA)", "T4 sequence (P10997 34-70 limits assumed)": "T2 sequence (P10997 34-70 limits assumed)", "test": "Congo red birefringence of pre-formed hIAPP fibrils with the tested molecules", "settings": "5-fold molar excess of compound", "experimental": "as §4"}, "[7]": {"test": "XTT assay, cytotoxicity of the hybrid molecules towards SH-SY5Y", "format": "cell-based", "settings": "human, SH-SY5Y cells", "experimental": "(§5) To this end, we first tested whether the hybrid molecules carried any cytotoxicity themselves. […] No considerable toxicity (≥95% viability) was caused by the hybrid molecules towards either cell line, even at the highest concentration of 250 µM (Fig. 8).\n(§6) The SH-SY5Y and HEK-293 cell lines (2 × 10^5 cells/mL) were cultured in 96-well tissue microplates (100 µL/well) and allowed to adhere overnight at 37 °C. The conjugate molecules were dissolved in DMEM:nutrient mixture F12 (Ham’s) (1:1) (Biological Industries, Israel) at different concentrations. The negative control was prepared as medium without hybrid molecules and treated in the same manner. 100 µL of medium with or without hybrid molecules were added to each well in triplicate. Following incubation for 24 h at 37 °C, cell viability was evaluated using the 2,3-bis(2-methoxy-4-nitro-5-sulfophenyl)-2H-tetrazolium-5-carboxanilide (XTT) cell proliferation assay kit (Biological Industries, Israel) according to the manufacturer’s instructions. Briefly, 100 µL of activation reagent was added to 5 mL of XTT reagent, followed by the addition of 50 µL of activated-XTT solution to each well. After 2 h incubation at 37 °C, color intensity was measured using an ELISA microplate reader at 450 nm and 630 nm. Results are presented as mean and mean standard error. Each experiment was repeated minimum three times."}, "[8]": {"test": "XTT assay, cytotoxicity of the hybrid molecules towards HEK-293", "format": "cell-based", "settings": "human, HEK-293 cells", "experimental": "as §5, §6"}}, "data": [{"smiles": "NC(Cc1c[nH]c2ccccc12)C(=O)NC(Cc1c[nH]c2ccccc12)C(=O)O", "note": "(stereo not drawn) [WW]", "values": [{"measurement": "Aβ42 fibril morphology (TEM), in words", "setting": "Aβ42 [1]", "value": "did not display any effect"}, {"measurement": "hIAPP fibril morphology (TEM), in words", "setting": "hIAPP [2]", "value": "clearly visible in a more densely packed network"}, {"measurement": "Congo red birefringence of Aβ42, in words", "setting": "Aβ42 [3]", "value": "intense gold-green birefringence"}, {"measurement": "Congo red birefringence of hIAPP, in words", "setting": "hIAPP [4]", "value": "clear gold-green birefringence"}, {"measurement": "Congo red birefringence of pre-formed Aβ42 fibrils, in words", "setting": "[5]", "value": "faint birefringence"}, {"measurement": "Congo red birefringence of pre-formed hIAPP fibrils, in words", "setting": "[6]", "value": "unchanged"}, {"measurement": "viability at 24 h, 0.2 µM", "setting": "[7]; 0.2µM", "value": 98.8, "unit": "%"}, {"measurement": "viability at 24 h, 1 µM", "setting": "[7]; 1 µM", "value": 100, "unit": "%"}, {"measurement": "viability at 24 h, 10 µM", "setting": "[7]; 10 µM", "value": 98.4, "unit": "%"}, {"measurement": "viability at 24 h, 50 µM", "setting": "[7]; 50 µM", "value": 90.9, "unit": "%"}, {"measurement": "viability at 24 h, 250 µM", "setting": "[7]", "value": 88.4, "unit": "%"}, {"measurement": "viability at 24 h, 250 µM", "setting": "[7]; SH-SY5Y, 24 h", "value": "~88", "unit": "%"}, {"measurement": "viability at 24 h, 0.2 µM", "setting": "[8]; 0.2µM", "value": 93.6, "unit": "%"}, {"measurement": "viability at 24 h, 1 µM", "setting": "[8]; 1 µM", "value": 98.4, "unit": "%"}, {"measurement": "viability at 24 h, 10 µM", "setting": "[8]; 10 µM", "value": 94.3, "unit": "%"}, {"measurement": "viability at 24 h, 50 µM", "setting": "[8]; 50 µM", "value": 84.5, "unit": "%"}, {"measurement": "viability at 24 h, 250 µM", "setting": "[8]; 250 µM", "value": 83.7, "unit": "%"}, {"measurement": "viability at 24 h, 250 µM", "setting": "[8]; HEK-293, 250 µM, 24 h", "value": "~83", "unit": "%"}]}]}
